Test results taken from BindingDB's records for doi:10.7270/Q2VT1QHF (Vanderbilt Screening Center For Gpcrs, Ion Channels and …, 2010).

Molecular target: Metabotropic glutamate receptor 4 (Homo sapiens, UniProt Q14833)
Experiment: PubChem AID 2197

Metabotropic glutamate receptor 4, sequence (Q14833 whole entry): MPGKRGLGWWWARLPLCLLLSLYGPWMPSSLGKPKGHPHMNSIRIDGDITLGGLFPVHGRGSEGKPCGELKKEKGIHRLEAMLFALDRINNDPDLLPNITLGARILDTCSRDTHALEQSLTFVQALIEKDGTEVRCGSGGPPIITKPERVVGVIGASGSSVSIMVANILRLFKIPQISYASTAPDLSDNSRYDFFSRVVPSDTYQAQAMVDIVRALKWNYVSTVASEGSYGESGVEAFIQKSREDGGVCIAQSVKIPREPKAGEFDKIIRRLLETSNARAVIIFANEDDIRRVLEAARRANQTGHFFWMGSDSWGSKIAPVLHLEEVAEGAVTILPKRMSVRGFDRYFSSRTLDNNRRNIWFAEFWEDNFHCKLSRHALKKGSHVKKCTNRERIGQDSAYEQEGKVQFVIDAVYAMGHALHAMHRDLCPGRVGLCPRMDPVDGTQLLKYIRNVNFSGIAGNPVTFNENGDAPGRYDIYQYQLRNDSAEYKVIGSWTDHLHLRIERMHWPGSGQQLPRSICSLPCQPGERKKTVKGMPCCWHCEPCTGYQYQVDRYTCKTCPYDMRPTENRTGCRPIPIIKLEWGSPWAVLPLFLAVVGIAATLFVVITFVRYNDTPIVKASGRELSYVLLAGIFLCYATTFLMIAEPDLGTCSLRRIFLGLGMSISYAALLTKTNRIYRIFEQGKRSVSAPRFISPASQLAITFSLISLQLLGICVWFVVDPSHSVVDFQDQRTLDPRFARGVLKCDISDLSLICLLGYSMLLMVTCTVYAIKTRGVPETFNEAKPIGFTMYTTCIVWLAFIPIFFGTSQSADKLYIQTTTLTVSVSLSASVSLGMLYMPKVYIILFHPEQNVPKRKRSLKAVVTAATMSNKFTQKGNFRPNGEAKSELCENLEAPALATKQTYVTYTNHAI

Compound | EC50 [µM]
O=C(Nc1ccc(-n2c(O)ccc2O)c(Cl)c1)c1ccccn1 [N-[3-chloro-4-(2,5-dioxopyrrolidin-1-yl)phenyl]pyridine-2-carboxamide] | 5.96
O=C(Nc1ccc(-n2c(O)c3c(c2O)[C@H]2CC[C@@H]3O2)c(Cl)c1)c1ccccn1 [VU0405235-1] | 1.44
